Measurements taken from article PMC6938011, “Antiplasmodial profile of selected compounds from Malaria Box: in vitro evaluation, speed of action and drug combination studies” (Malaria Journal, 2019).
pIC50: −log10 of the molar value. Entries after “also recorded” stand apart in the source; their conditions may differ. Read-outs that look alike come from different tables or passages of the source.

Legend:
[1] = tested on: P. falciparum; assay: Combination assays, isobologram analysis (FIC50 pairs); assay type: cell-based, Plasmodium falciparum; conditions: for Combination profile with artesunate: isobologram, IC50 equivalent ratios 1:4, 2:3, 1:1, 3:2, 4:1; for Isobologram data, Additive: fraction of FIC50 pairs / Isobologram data, Additive: number of FIC50 pairs / Isobologram data, Antagonistic: fraction of FIC50 pairs / Isobologram data, Antagonistic: number of FIC50 pairs / Isobologram data, Synergic: number of FIC50 pairs: combination with artesunate
Method: Combinations of anti-malarial candidates with artesunate, an artemisinin derivative, were tested in fixed molar ratios based on the individual IC50 values that were previously determined by the SYBR Green I assay. Traditionally, a line (isobole) of additivity is used to distinguish between additive, synergic, and antagonistic interaction profiles. […] Thus, a systematic consideration of additivity ranges was included in the isobologram analysis, as previously described by Grabovsky and Tallarida. Concentration-response curves of individual compounds were used in the calculation of each pair’s additivity range (area within the upper and lower limits in Figs. 4 and 5). Fractional inhibitory concentration (FIC50) pairs plotted as points inside the additivity range indicate the expected sum of each compound effect, while points above and below the range indicate antagonistic and synergic interactions, respectively. The selected inhibitors were combined with artesunate in the IC50 equivalent ratios of 1:4, 2:3, 1:1, 3:2 and 4:1 for the construction of the isobolograms.

[2] = tested on: P. falciparum; assay: as above; assay type: cell-based, Plasmodium falciparum
[3] = tested on: P. falciparum; conditions: cited from earlier work
[4] = tested on: Hepatocarcinoma cells (HepG2); assay: Cytotoxicity evaluation, neutral red assay; assay type: cell-based, human; conditions: HepG2, 72 h, read-out: IC50^HepG2, NR Average (confidence interval-95%)
Method: (§1) Hepatocarcinoma cells (HepG2) were cultivated in RPMI medium supplemented with 10% (v/v) fetal bovine serum and 0.2% (v/v) penicillin/streptomycin. The antibiotics were added to the medium to eliminate the potential interference of microbial contamination. Cells were cultivated at 37 °C and 5% CO2; the supplemented medium was changed every 2 days.
(§2) For the experimental procedures, cells were trypsinized and transferred to a 96-well plate at 30,000 cells per well and incubated at 37 °C overnight for cell adhesion. Then, serial dilutions of the inhibitor candidates were added to the plate. Cells without any compounds were used as positive growth controls. The plate was incubated at 37 °C and 5% CO2 for 72 h. After incubation, the highest compound concentration to be considered (highest concentration without precipitation) was observed by microscopy. Cytotoxicity was evaluated by two different methods. The first is a colorimetric assay based on metabolic cell activity in the presence of 3-(4,5-dimethylthiazol-2-yl)-2,5-diphenyltetrazolium bromide (MTT). Briefly, mitochondrial enzymes can convert the MTT dye into the purple insoluble compound formazan. To each well, 20 µL MTT at 5 mg/mL was added, followed by incubation at 37 °C for 3 to 5 h. After incubation, the supernatant was removed, and formazan crystals were solubilized in 100 µL DMSO. The absorbance, which is proportional to the number of viable cells, was determined using a SpectraMAX Plus 384 plate reader (Molecular Devices Corp., Sunnyvale, CA) (λ = 570 nm). The second method is based on the uptake of neutral red, a dye that is retained inside the lysosomes of viable cells. To each well, after removal of culture media, 200 µL neutral red medium 40 µg/mL was added, followed by incubation at 37 °C for 3 to 5 h. After incubation, supernatant was dispensed, and 200 µL 0.5% (v/v) formaldehyde in 1% (m/v) CaCl2 was added to remove excess of the dye for 5 min. Supernatant was dispensed, and 100 µL alcohol-acid solution (50% (v/v) ethanol, 1% (v/v) glacial acetic acid) was added, and the plate was stirred until a homogeneous solution was formed. The absorbance was determined using a SpectraMAX Plus 384 plate reader (Molecular Devices Corp., Sunnyvale, CA) (λ = 540 nm). For both methods, the half maximal inhibitory concentration (IC50^HepG2) was determined by non-linear regression analysis of the resulting concentration-response curve using the software Origin 2016 (OriginLab Corporation).

[5] = parameters: method as in PMID 27467575; conditions: previous pharmacokinetics studies ref 30; cited from earlier work
[6] = tested on: P. falciparum 3D7 strain; assay: SYBR Green I inhibition assay for the asexual stages of P. falciparum; assay type: cell-based, Plasmodium falciparum; conditions: 72 h, read-out: IC50^Pf Average (confidence interval-95%)
Method: The P. falciparum 3D7 strain was kept in culture in a humidified incubator at 37 °C in RPMI-1640 medium with 25 mM NaHCO3, 25 mM HEPES (pH 7.4), 11 mM D-glucose, 3.67 mM hypoxanthine and 25 µg/mL gentamicin, supplemented with 0.5% (m/v) AlbuMAX II. The culture medium was changed daily, and the parasitaemia was maintained below 10% with 2.5% haematocrit in human erythrocytes.
The parasites were synchronized through sterile 5% (m/v) D-sorbitol treatment over 10 min at 37 °C for the enrichment of ring-stage parasites. The cultures were pelleted by centrifugation at 600×g over 5 min. The parasitaemia was determined by microscope analysis of thin blood smears stained with Giemsa 10% (v/v) after methanol fixation. The initial parasitaemia was calculated from 1000 red blood cells (RBCs), and cultures were diluted to 0.5% parasitaemia and 2% haematocrit by adding the appropriate volumes of erythrocytes and medium. Parasite aliquots of 180 µL were distributed into 96-well plates previously prepared with 20 µL aliquots of a tenfold concentrated compound. Negative and positive control wells corresponding to non-parasitized erythrocytes and parasite cultures in the absence of compounds were set in parallel. The DMSO concentration was maintained below 0.05% (v/v). The plates were incubated for 72 h at 37 °C in a humidified incubator with a gas mixture of 90% N2, 5% O2 and 5% CO2. After incubation, the culture medium was removed, and the cells were resuspended in 100 µL PBS buffer (116 mM NaCl, 10 mM Na2HPO4, 3 mM KH2PO4) and lysed with 100 µL lysis buffer (20 mM Tris base, 5 mM EDTA, 0.0008% (v/v) Triton X-100, 0.008% (m/v) saponin, pH 8.0) containing 0.002% (v/v) SYBR Green I. Plates were incubated at room temperature for 30 min, and the fluorescence corresponding to the parasitic density was determined using a SpectraMAX Gemini EM plate reader (Molecular Devices Corp., Sunnyvale, CA) (excitation at 485 nm, emission at 535 nm). The half maximal inhibitory concentration (IC50^Pf) was determined by non-linear regression analysis of the resulting concentration-response curve using the software Origin 2016 (OriginLab Corporation).

[7] = tested on: P. berghei NK65 strain; assay: In vivo suppressive parasite growth test against Plasmodium berghei; parameters: species or system Swiss outbred mice; conditions: 50 mg/kg oral gavage daily for 3 days, P. berghei-infected mice
Method: A suppressive parasite growth test was performed in mice infected with P. berghei NK65 strain (originally received from the New York University Medical School), as described previously, with some modifications. Briefly, adult Swiss outbred mice (20 ± 2 g weight) were intraperitoneally inoculated with 1 × 10^5 red blood cells infected with P. berghei. The infected mice were maintained together for at least 2 h and then randomized into groups of 5 animals per cage, which were subsequently administered 50 mg/kg of each compound diluted in 3% (v/v) DMSO by oral gavage daily for 3 days. Two control groups were used in parallel: one was treated with CQ (20 mg/kg) and the other was treated with the vehicle. Blood smears from mouse tails were prepared on days 5 and 7 post-infection and then fixed with methanol, stained with Giemsa 10% (v/v), and examined under the microscope.

[8] = parameters: method as in PMID 27467575; conditions: previous pharmacokinetics studies ref 30; cited from earlier work; remark: listed apart in the source
[9] = tested on: Hepatocarcinoma cells (HepG2); assay: Cytotoxicity evaluation, MTT assay; assay type: cell-based, human; conditions: HepG2, 72 h, read-out: IC50^HepG2, MTT Average (confidence interval-95%)
Method: as §1, §2

[10] = tested on: P. falciparum 3D7 strain; parameters: method as in PMID 23798988; conditions: reported potency of Malaria Box compounds ref 13, read-out: Reported IC50^Pf; cited from earlier work
[11] = tested on: asexual intraerythrocytic stages of P. falciparum; assay: Speed of action studies (microscopy of thin blood smears); assay type: cell-based, Plasmodium falciparum; conditions: ring-stage parasites; for Parasite morphology during incubation: compound at tenfold the IC50, microscopy up to 36 h; for Speed of action: compound at tenfold the IC50, observed 0-36 h
Method: Parasites in thin blood smears were observed by microscopy after 0, 8, 16, 24 and 36 h of incubation.

[12] = Solubility in the cytotoxicity assay conditions; assay type: physicochemical; conditions: HepG2 cytotoxicity assay conditions
Method: For the experimental procedures, cells were trypsinized and transferred to a 96-well plate at 30,000 cells per well and incubated at 37 °C overnight for cell adhesion. Then, serial dilutions of the inhibitor candidates were added to the plate. Cells without any compounds were used as positive growth controls. The plate was incubated at 37 °C and 5% CO2 for 72 h. After incubation, the highest compound concentration to be considered (highest concentration without precipitation) was observed by microscopy. Cytotoxicity was evaluated by two different methods. The first is a colorimetric assay based on metabolic cell activity in the presence of 3-(4,5-dimethylthiazol-2-yl)-2,5-diphenyltetrazolium bromide (MTT). Briefly, mitochondrial enzymes can convert the MTT dye into the purple insoluble compound formazan. […] The absorbance, which is proportional to the number of viable cells, was determined using a SpectraMAX Plus 384 plate reader (Molecular Devices Corp., Sunnyvale, CA) (λ = 570 nm). […] The absorbance was determined using a SpectraMAX Plus 384 plate reader (Molecular Devices Corp., Sunnyvale, CA) (λ = 540 nm). For both methods, the half maximal inhibitory concentration (IC50^HepG2) was determined by non-linear regression analysis of the resulting concentration-response curve using the software Origin 2016 (OriginLab Corporation).

[13] = tested on: bc1 complex; parameters: method as in PMID 27467575; conditions: mitochondrial electron transport chain ref 30; cited from earlier work

O=C1C(O)=C([C@H]2CC[C@H](c3ccc(Cl)cc3)CC2)C(=O)c2ccccc21 [atovaquone, reference compound]
Combination profile with artesunate [1]: antagonistic | Combination profile with proguanil [2]: synergic | Speed of action (literature) [3]: slow

CCOC(=O)C1=C(C)N=c2sc(=Cc3cc(Cl)ccc3O)c(=O)n2C1c1ccc(OC)cc1 (stereo not drawn) [Compound 2]
Isobologram data, Additive: fraction of FIC50 pairs [1]: 92% | Isobologram data, Additive: number of FIC50 pairs [1]: 12 | Isobologram data, Antagonistic: fraction of FIC50 pairs [1]: 8% | Isobologram data, Antagonistic: number of FIC50 pairs [1]: 1 | Isobologram data, Synergic: number of FIC50 pairs [1]: 0 | Combination profile with artesunate [1]: additive profile | Combination profile with artesunate ([1]; listed as 02): Additivity | pIC50 [4]: 4.66 | Plasma protein binding [5]: > 99% | pIC50 [6]: 6.40 | % of reduction of parasitaemia, day 5 after infection [7]: 64% | % of reduction of parasitaemia, day 7 after infection [7]: 33% | Oral bioavailability [8]: poor | pIC50 [9]: 4.66 | pIC50 [10]: 6.31 | Parasite morphology during incubation [11]: pyknotic nuclei formation | Speed of action [11]: Fast

Cc1cc(NC(=O)c2ccc(-c3ccccc3)cc2)no1 [Compound 10]
Isobologram data, Additive: fraction of FIC50 pairs [1]: 38% | Isobologram data, Additive: number of FIC50 pairs [1]: 5 | Isobologram data, Antagonistic: fraction of FIC50 pairs [1]: 62% | Isobologram data, Antagonistic: number of FIC50 pairs [1]: 8 | Isobologram data, Synergic: number of FIC50 pairs [1]: 0 | Combination profile with artesunate [1]: antagonistic; also recorded: Antagonism | pIC50 [6]: 6.07 | Solubility in the assay conditions [12]: low solubility | pIC50 [10]: 6.16 | Parasite morphology during incubation [11]: punctual shapes after 16 h | Speed of action [11]: Fast

O=C1c2ccccc2-c2nnc(-c3ccc(Br)cc3)cc21 [Compound 6]
Isobologram data, Additive: fraction of FIC50 pairs [1]: 15% | Isobologram data, Additive: number of FIC50 pairs [1]: 2 | Isobologram data, Antagonistic: fraction of FIC50 pairs [1]: 85% | Isobologram data, Antagonistic: number of FIC50 pairs [1]: 11 | Isobologram data, Synergic: number of FIC50 pairs [1]: 0 | Combination profile with artesunate ([1]; listed as 06): Antagonism | pIC50 [4]: < 4.90 | pIC50 [6]: 5.92 | Combination profile with proguanil [2]: highly synergic | Molecular target [13]: inhibitor of the mitochondrial electron transport chain targeting the bc1 complex | pIC50 [9]: < 4.90 | pIC50 [10]: 5.97 | Parasite morphology during incubation [11]: young trophozoites were observed after 36 h | Speed of action [11]: slow-acting and Slow
